Experimental data from publication PMC10220892 (Pharmaceutics, 2023).
In brackets after ≈: the same amount, converted by molar mass.

Experiments:
[1] = test system: U87MG cells; assay: MTT cell viability assay; format: cell-based; details: Homo sapiens, U-87 MG, 72 h
Method: (§1) U87MG, U251, U87MG-EGFRvIII, and U87MG-TMZR cells were cultured in DMEM supplemented with 10% FBS and plated at low density in 96-well plates (2000 cells per well). Then, the cells were treated with different concentrations of gefitinib or compound SMUZ106 for a period of 72 h. MTT (5 mg/mL) was added to each well, and the cells were incubated for another 4 h at 37 °C. The optical density value at 570 nm was measured using a microplate reader (TECAN, Männedorf, Switzerland).

[2] = test system: U87MG-TMZR cells (TMZ-resistant U87MG cells); assay: MTT cell viability assay; format: cell-based; details: Homo sapiens, U-87 MG, 72 h
Method: as §1

[3] = test system: U251 cells; assay: MTT cell viability assay; format: cell-based; details: Homo sapiens, U-251, 72 h
Method: as §1

[4] = test system: U87MG-EGFRvIII cells; assay: MTT cell viability assay; format: cell-based; details: 72 h
Method: as §1

[5] = test system: U251 cells; assay: Colony formation assay; format: cell-based; details: 1, 3 and 10 μM
Method: (§2) U87MG, U251, U87MG-EGFRvIII, and U87MG-TMZR cells were trypsinized, and suspended in 6-well plates. After a period of 24 h, the cells were exposed to compound SMUZ106 with different concentrations (1, 3, and 10 μM), and the U87MG-TMZR cells were exposed to compound SMUZ106 with different concentrations (3, 10, and 30 μM) for 72 h. After 10–14 days of cultivation, the cells were stained with 0.4% trypan blue to visualize the formed colony and to count the number of colonies by Enzyme-Linked Immunospot Analyzer (CTL, Shaker Heights, OH, USA).

[6] = test system: U87MG cells; assay: Colony formation assay; format: cell-based; details: 1, 3 and 10 μM
Method: as §2

[7] = test system: U87MG-EGFRvIII cells; assay: Colony formation assay; format: cell-based; details: 1, 3 and 10 μM
Method: as §2

[8] = test system: U87MG-TMZR cells; assay: Colony formation assay; format: cell-based; details: 3, 10 and 30 μM
Method: as §2

[9] = test system: U87MG-EGFRvIII cells; assay: Cell cycle analysis by flow cytometry (PI); format: cell-based; details: 48 h; for cells in S phase: control 35.68%; for cells in G0/G1 phase: control 50.82%
Method: (§3) U87MG-EGFRvIII cells were seeded into 6-well plates and treated with different concentrations of the compound SMUZ106 (2.5, 5, and 10 μM) for 48 h. Following the treatment, the cells were harvested, washed twice with cold PBS, and fixed overnight at 4 °C in 70% ethanol, then stained with PI solution to analyze the cell cycle distribution via flow cytometry. The results were determined using the ModFit LT 5.0 software. Each assay was performed in triplicates.

[10] = test system: U87MG-EGFRvIII cells; assay: Apoptosis analysis by flow cytometry (Annexin V-FITC/PI); format: cell-based; details: 48 h
Method: as §3
To perform the apoptosis analysis, after being washed with PBS, the cells were resuspended in 195 μL Annexin V-FITC binding solution, and then 5 µL of Annexin V-FITC was added, followed by 10 µL PI. Following incubation at room temperature for 20 min in the dark, cell apoptosis rates were detected by flow cytometry. The data were analyzed using FlowJo_V10 software.

[11] = test system: phospho-EGFR; assay: Western blotting of EGFR signaling in U87MG cells; format: cell-based; details: 2.5, 5 and 10 μM, 48 h
Method: (§4) The GBM cells were exposed to compound SMUZ106 at different concentrations (2.5, 5, and 10 μM) for 48 h, and the total proteins were extracted from the cells using RIPA lysis buffer. The concentration of the obtained protein was determined using the BCA Protein Assay Kit (Thermo Fisher, Waltham, MA, USA). Equivalent protein samples (30 μg) were subjected to SDS-PAGE gels and transferred to NC membranes (PALL, Port Washington, NY, USA). Then, the membranes were blocked with 5% milk in TBST for 1 h at RT and probed with primary antibodies diluted overnight at 4 °C, followed by incubation with appropriate secondary antibodies for 1 h at RT. Finally, the protein bands were visualized and scanned using an imaging system (ProteinSimple, Santa Clara, CA, USA).

[12] = test system: phospho-EGFR; assay: Western blotting of EGFR signaling in U87MG-EGFRvIII cells; format: cell-based; details: 2.5, 5 and 10 μM, 48 h
Method: as §4

[13] = target: T1, EGFR (Homo sapiens, UniProt P00533); assay: HTRF KinEASE-TK single-point kinase assay; format: biochemical; details: read-out: inhibition rate EGFR
T1 sequence (P00533 25-1210): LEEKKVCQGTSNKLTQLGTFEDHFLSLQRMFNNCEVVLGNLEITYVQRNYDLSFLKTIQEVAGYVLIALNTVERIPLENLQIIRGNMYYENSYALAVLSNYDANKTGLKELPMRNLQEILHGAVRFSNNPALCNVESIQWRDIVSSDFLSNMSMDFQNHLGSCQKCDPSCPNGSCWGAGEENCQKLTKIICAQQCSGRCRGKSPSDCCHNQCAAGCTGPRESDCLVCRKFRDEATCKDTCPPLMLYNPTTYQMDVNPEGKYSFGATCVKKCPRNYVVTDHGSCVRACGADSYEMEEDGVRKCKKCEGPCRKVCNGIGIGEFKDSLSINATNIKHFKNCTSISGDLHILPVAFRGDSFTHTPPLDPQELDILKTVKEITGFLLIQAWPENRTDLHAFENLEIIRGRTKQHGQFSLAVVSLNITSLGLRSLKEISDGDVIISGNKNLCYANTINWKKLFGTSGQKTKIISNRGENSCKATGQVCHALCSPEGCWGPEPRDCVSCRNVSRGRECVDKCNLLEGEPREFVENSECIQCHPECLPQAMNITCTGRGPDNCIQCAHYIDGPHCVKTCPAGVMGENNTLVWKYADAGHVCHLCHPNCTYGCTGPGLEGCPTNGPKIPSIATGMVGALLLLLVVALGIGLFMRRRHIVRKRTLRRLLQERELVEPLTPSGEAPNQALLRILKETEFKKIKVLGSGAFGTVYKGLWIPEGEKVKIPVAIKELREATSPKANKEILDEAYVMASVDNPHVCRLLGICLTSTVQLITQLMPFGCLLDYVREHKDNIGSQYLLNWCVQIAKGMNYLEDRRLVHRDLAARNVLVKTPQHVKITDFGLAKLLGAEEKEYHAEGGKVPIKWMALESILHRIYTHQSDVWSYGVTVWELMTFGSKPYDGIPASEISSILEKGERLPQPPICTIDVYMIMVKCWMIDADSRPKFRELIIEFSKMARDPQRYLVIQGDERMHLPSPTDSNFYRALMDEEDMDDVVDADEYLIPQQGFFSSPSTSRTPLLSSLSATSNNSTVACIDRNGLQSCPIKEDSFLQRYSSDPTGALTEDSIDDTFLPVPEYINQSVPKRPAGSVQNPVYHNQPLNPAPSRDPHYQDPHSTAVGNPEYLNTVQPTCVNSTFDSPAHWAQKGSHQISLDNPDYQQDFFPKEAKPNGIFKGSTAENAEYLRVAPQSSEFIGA
Method: (§5) IC50 determinations for EGFR were performed with the Z’-LYTE technology platform (Life Technologies), according to the manufacturer’s instructions. The enzyme activity assays of compound SMUZ106 were performed at a single-point concentration (1 μM) against 76 kinases by using the HTRF KinEASE-TK assay according to the manufacturer’s instructions.

[14] = target: T2, HER2 (Homo sapiens, UniProt P04626); assay: HTRF KinEASE-TK single-point kinase assay; format: biochemical; details: read-out: inhibition rate HER2
T2 sequence (P04626 23-1255): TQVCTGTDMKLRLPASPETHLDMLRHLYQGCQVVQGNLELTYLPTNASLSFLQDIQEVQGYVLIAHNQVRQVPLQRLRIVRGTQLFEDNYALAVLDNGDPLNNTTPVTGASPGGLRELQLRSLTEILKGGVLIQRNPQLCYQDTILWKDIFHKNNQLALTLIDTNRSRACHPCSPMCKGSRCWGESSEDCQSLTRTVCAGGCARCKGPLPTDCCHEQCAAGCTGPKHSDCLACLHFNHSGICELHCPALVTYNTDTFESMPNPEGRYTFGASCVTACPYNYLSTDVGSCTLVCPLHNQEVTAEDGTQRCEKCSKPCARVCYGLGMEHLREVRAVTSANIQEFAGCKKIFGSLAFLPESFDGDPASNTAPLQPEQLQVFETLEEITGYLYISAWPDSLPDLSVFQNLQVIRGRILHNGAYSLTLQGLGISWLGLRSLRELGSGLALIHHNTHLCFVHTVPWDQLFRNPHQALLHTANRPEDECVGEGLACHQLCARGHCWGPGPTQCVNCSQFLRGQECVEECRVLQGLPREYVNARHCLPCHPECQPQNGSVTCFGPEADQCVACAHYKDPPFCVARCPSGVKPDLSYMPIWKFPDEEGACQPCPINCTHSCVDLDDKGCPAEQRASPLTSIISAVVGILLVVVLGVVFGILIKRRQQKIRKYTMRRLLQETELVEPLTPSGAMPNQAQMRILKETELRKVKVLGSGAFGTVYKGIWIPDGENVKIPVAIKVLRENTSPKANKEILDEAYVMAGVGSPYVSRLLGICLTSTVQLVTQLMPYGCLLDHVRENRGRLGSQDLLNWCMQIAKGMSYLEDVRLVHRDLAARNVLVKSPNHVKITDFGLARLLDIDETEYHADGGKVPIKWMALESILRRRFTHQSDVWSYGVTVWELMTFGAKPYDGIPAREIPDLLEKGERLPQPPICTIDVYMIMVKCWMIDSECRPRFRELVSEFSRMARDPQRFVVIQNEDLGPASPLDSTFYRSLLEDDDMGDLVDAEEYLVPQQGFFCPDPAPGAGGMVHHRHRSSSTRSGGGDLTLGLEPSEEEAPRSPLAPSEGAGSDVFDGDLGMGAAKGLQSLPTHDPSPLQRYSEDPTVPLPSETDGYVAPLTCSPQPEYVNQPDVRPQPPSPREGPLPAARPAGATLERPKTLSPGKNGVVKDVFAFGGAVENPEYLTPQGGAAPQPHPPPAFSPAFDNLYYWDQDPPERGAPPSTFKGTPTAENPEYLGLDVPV
Method: as §5

[15] = target: T3, HER4 (Homo sapiens, UniProt Q15303); assay: HTRF KinEASE-TK single-point kinase assay; format: biochemical; details: read-out: inhibition rate HER4
T3 sequence (Q15303 26-1308): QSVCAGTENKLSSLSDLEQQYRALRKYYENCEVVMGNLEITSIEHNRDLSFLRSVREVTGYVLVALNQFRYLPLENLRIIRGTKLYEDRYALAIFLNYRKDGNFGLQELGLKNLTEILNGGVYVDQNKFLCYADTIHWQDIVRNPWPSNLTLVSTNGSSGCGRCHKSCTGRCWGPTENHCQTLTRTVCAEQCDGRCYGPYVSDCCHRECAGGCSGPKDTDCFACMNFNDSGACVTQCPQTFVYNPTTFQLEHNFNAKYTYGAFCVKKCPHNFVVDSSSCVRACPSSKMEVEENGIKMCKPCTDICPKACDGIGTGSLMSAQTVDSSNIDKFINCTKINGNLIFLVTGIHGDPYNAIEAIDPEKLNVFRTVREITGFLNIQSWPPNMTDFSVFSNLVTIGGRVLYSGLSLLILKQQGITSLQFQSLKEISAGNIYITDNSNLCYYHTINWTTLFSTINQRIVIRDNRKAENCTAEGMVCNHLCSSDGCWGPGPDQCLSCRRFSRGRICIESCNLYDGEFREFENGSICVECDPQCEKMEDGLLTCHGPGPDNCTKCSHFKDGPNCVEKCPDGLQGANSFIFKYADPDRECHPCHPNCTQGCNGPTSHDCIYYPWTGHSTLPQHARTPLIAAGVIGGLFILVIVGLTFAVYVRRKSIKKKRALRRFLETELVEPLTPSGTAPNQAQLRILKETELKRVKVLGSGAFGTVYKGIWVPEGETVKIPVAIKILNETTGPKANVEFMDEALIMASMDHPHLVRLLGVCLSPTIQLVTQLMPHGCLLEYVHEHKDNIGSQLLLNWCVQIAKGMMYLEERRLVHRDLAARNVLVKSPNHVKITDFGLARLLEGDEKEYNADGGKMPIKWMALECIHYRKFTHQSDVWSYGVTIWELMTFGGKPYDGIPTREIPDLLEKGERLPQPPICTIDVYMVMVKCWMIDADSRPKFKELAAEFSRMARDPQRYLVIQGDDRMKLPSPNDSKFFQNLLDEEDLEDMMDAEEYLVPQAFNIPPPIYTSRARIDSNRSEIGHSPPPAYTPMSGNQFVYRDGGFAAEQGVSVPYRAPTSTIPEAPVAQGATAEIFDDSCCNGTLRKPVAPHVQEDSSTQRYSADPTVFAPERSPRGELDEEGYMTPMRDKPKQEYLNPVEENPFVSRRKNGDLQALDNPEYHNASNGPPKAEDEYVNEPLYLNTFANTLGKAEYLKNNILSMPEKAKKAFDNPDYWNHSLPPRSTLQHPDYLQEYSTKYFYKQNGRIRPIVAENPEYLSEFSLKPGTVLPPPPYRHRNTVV
Method: as §5

[16] = test system: panel of 76 tyrosine kinases; assay: Kinase selectivity screen (HTRF KinEASE-TK); format: biochemical; details: 1 μM, 76 kinases
Method: as §5

[17] = Solubility by HPLC; format: physicochemical
Method: The solubility of the compound SMUZ106 and its related salts in artificial gastric juice, artificial intestinal fluid, and physiological saline were determined by HPLC. […] Therefore, SMUZ106 hydrochloride was selected for the pharmacokinetic analysis.

[18] = Pharmacokinetics study in mice; format: in vivo; details: male, Kunming, mouse, plasma
Method: A total of 72 male Kunming mice with an average weight of 20 g were purchased from Southern Medical University (Guangzhou, China) and divided into three groups, with […]. SMUZ106 was dissolved in 0.5% CMC-Na to prepare a suspension for oral administration (100 mg/kg). […] For the intravenous and oral administration, blood samples (0.5 mL) were collected from the mice’s orbital veins and placed into heparinized tubes at 0.25, 0.5, 1, 2, 6, 8, 12, and 24 h following administration. After centrifuging all the samples at 8000 r/min for 5 min, the supernatants were stored at −80 °C until analysis. Subsequently, the plasma samples were transferred to a clean 1.5 mL centrifuge tube and spiked with 100 μL of the internal standard solution (gefitinib, 1.0 μg/mL). Methyl alcohol was then added to the mixture, vortexed for 2 min, and centrifuged at 13,000 r/min for 30 min. […] A 10 µL aliquot of each sample was injected into the LC-MS/MS system for analysis. The pharmacokinetic parameters, such as half-life (t1/2), time of peak plasma concentration (Tmax), maximum plasma concentration (Cmax), mean residence time (MRT), area under the concentration–time curve (AUC), and bioavailability (F), were determined using DAS 2.0 software.

[19] = target: T1, EGFR; parameters: method as in PMID 27132165; details: read-out: IC50 EGFR kinase; cited from earlier work
[20] = target: T2, HER2; parameters: method as in PMID 27132165; details: Figure S1; read-out: IC50 HER2 kinase; cited from earlier work
[21] = target: T3, HER4; parameters: method as in PMID 27132165; details: Figure S1; read-out: IC50 HER4 kinase; cited from earlier work

SMILES: Cn1nnc2c(C(N)=O)ncn2c1=O [TMZ, temozolomide, reference compound]
- IC50 [1]: 501 µM
- IC50 [2]: 2040 µM

SMILES: c1cnc2ccc(Nc3ncnc4ccc(-c5cnn(C6CCNCC6)c5)cc34)cc2c1 [SMUZ106, 6-(1-(piperidin-4-yl)-1H-pyrazol-4-yl)-N-(quinolin-6-yl)quinazolin-4-amine]
- IC50 [3]: 10.3 µM
- IC50 [1]: 7.43 µM
- IC50 [4]: 4.36 µM
- IC50 [2]: 7.86 µM
- clonogenicity (number of colonies) [5]: significantly decreased the clonogenicity
- clonogenicity (number of colonies) [6]: significantly decreased the clonogenicity
- clonogenicity (number of colonies) [7]: significantly decreased the clonogenicity
- clone formation [8]: could inhibit the proliferation of TMZ-resistant U87MG cells
- cells in S phase ([9]; 2.5 μM): 27.08%
- cells in G0/G1 phase ([9]; 2.5 μM): 54.44%
- cells in S phase ([9]; 5 μM): 24.01%
- cells in G0/G1 phase ([9]; 5 μM): 58.17%
- cells in S phase ([9]; 10 μM): 20.78%
- cells in G0/G1 phase ([9]; 10 μM): 62.50%
- percentage of apoptotic cells ([10]; 2.5 μM): 2.34%
- percentage of apoptotic cells ([10]; 5 μM): 2.70%
- percentage of apoptotic cells ([10]; 10 μM): 3.02%
- phosphorylation levels of AKT and Erk1/2 [11]: did not significantly downregulate
- protein expression level of total EGFR [11]: remained unchanged
- protein level of phospho-EGFR [11]: decreased dose dependently
- phosphorylation levels of AKT and Erk1/2 [12]: did not significantly downregulate
- protein expression level of total EGFR [12]: remained unchanged
- protein level of phospho-EGFR [12]: decreased dose dependently
- inhibition at 1 µM [13]: 98.7%
- inhibition at 1 µM [14]: 75.4%
- inhibition at 1 µM [15]: 87.3%
- kinase selectivity [16]: excellent selectivity to EGFR
- solubility ([17]; artificial gastric juice, simulated gastric fluid): 16.8 mg/mL (≈ 39.8 mM)
- solubility ([17]; artificial intestinal juice, fassgf or other biorelevant): 0.22 mg/mL (≈ 0.522 mM)
- solubility ([17]; medium not named in the sentence (values match artificial gastric juice of Table S2)): 16.8 mg/mL (≈ 39.8 mM)
- solubility ([17]; normal saline, saline or isotonic): 3.69 mg/mL (≈ 8.75 mM)
- bioavailability ([18]; oral, p.o. 100 mg/kg vs i.v. 25 mg/kg, read-out: F (absolute bioavailability)): 29%
- AUC(0-inf) ([18]; po, p.o. 100 mg/kg): 7.51 ± 1.06 µg·h/mL
- Cmax ([18]; po, p.o. 100 mg/kg): 1.19 ± 0.464 µg/mL
- Tmax ([18]; po, p.o. 100 mg/kg): 6 h
- half-life ([18]; po, p.o. 100 mg/kg): 0.87 ± 0.01 h
- MRT last ([18]; po, p.o. 100 mg/kg, read-out: MRT0→t): 6.32 ± 0.22 h
- IC50 [19]: 0.0441 µM
- IC50 [20]: 0.874 µM
- IC50 [21]: 0.93 µM
